Experimental data reported in patent US20250282799A1, “SUBSTITUTED PYRIDO[4,3-d]PYRIMIDINES AS KRAS MODULATORS” (Alterome Therapeutics, Inc., priority 2023, published 2025).

Test system: KRAS G12V dependent lung adenocarcinoma cell line, NCI-H441
Assay: Cellular pERK (Thr202/Tyr204) FRET/HTRF assay
Type: cell-based
Conditions: Homo sapiens, NCI-H441, pERK HTRF, NCI-H441 cells (KRAS G12V)
Method in brief: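 Adherent NCI-H441 cells, plated the previous night, receive test compound for one hour at 37 °C. They are then lysed with a buffer containing phosphatase inhibitors and incubated at room temperature with Eu3+-cryptate and d2 labelled anti-pERK antibodies. HTRF signal gives IC50 by curve fitting.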

Compound	IC50 [nM]
[2H]C([2H])([2H])Oc1c(F)ccc2cccc(-c3ncc4c(N5CCOC[C@H]6[C@H](F)[C@H]65)nc(OC([2H])([2H])[C@@]56CCCN5C[C@H](F)C6)nc4c3F)c12 [Example 43, (1S,7S,8S)-8-Fluoro-2-(8-fluoro-7-(7-fluoro-8-(methoxy-d3)naphthalen-1-yl)-2-(((2R,7aS)-2-fluorotetrahydro-1H-pyrrolizin-7a(5H)-yl)methoxy-d2)pyrido[4,3-d]pyrimidin-4-yl)-5-oxa-2-azabicyclo[5.1.0]octane]	< 50
[2H]C([2H])([2H])Oc1c(F)c(F)cc2cc(N)cc(-c3ncc4c(N5CCOC[C@H]6[C@H](F)[C@H]65)nc(OC([2H])([2H])[C@@]56CCCN5C[C@H](F)C6)nc4c3F)c12 [Example 44, 6,7-Difluoro-4-(8-fluoro-4-((1S,7S,8S)-8-fluoro-5-oxa-2-azabicyclo[5.1.0]octan-2-yl)-2-(((2R,7aS)-2-fluorotetrahydro-1H-pyrrolizin-7a(5H)-yl)methoxy-d2)pyrido[4,3-d]pyrimidin-7-yl)-5-(methoxy-d3)naphthalen-2-amine]	< 50
[2H]C([2H])(Oc1nc(N2CCOC[C@H]3[C@H](F)[C@H]32)c2cnc(-c3cccc4ccc(F)c(C#C)c34)c(F)c2n1)[C@@]12CCCN1C[C@H](F)C2 [Example 45, (1S,7S,8S)-2-(7-(8-Ethynyl-7-fluoronaphthalen-1-yl)-8-fluoro-2-(((2R,7aS)-2-fluorotetrahydro-1H-pyrrolizin-7a(5H)-yl)methoxy-d2)pyrido[4,3-d]pyrimidin-4-yl)-8-fluoro-5-oxa-2-azabicyclo[5.1.0]octane]	< 50
[2H]C([2H])(Oc1nc(N2CCOC[C@@H]3[C@@H](F)[C@@H]32)c2cnc(-c3cccc4ccc(F)c(C#C)c34)c(F)c2n1)[C@@]12CCCN1C[C@H](F)C2 [Example 46, (1R,7R,8R)-2-(7-(8-ethynyl-7-fluoronaphthalen-1-yl)-8-fluoro-2-(((2R,7aS)-2-fluorotetrahydro-1H-pyrrolizin-7a(5H)-yl)methoxy-d2)pyrido[4,3-d]pyrimidin-4-yl)-8-fluoro-5-oxa-2-azabicyclo[5.1.0]octane]	500 to 10000
[2H]C([2H])(Oc1nc(N2CCOC[C@@H]3C[C@@H]32)c2cnc(-c3ccc(F)c4sc(N)c(C#N)c34)c(F)c2n1)[C@@]12CCCN1C[C@H](F)C2 [Example 47, 4-(4-((1S,7R)-5-Oxa-2-azabicyclo[5.1.0]octan-2-yl)-8-fluoro-2-(((2R,7aS)-2-fluorotetrahydro-1H-pyrrolizin-7a(5H)-yl)methoxy-d2)pyrido[4,3-d]pyrimidin-7-yl)-2-amino-7-fluorobenzo[b]thiophene-3-carbonitrile]	500 to 10000
[2H]C([2H])(Oc1nc(N2CCOC[C@H]3C[C@H]32)c2cnc(-c3ccc(F)c4sc(N)c(C#N)c34)c(F)c2n1)[C@@]12CCCN1C[C@H](F)C2 [Example 48, 4-(4-((1R,7S)-5-Oxa-2-azabicyclo[5.1.0]octan-2-yl)-8-fluoro-2-(((2R,7aS)-2-fluorotetrahydro-1H-pyrrolizin-7a(5H)-yl)methoxy-d2)pyrido[4,3-d]pyrimidin-7-yl)-2-amino-7-fluorobenzo[b]thiophene-3-carbonitrile]	50 to 500
[2H]C([2H])([2H])Oc1c(C#N)ccc2cc(N)cc(-c3ncc4c(N5CCCC[C@H]6[C@H](F)[C@H]65)nc(OC([2H])([2H])[C@@]56CCCN5C[C@H](F)C6)nc4c3F)c12 [Example 49, 6-Amino-8-(8-fluoro-4-((1S,7R,8S)-8-fluoro-2-azabicyclo[5.1.0]octan-2-yl)-2-(((2R,7aS)-2-fluorotetrahydro-1H-pyrrolizin-7a(5H)-yl)methoxy-d2)pyrido[4,3-d]pyrimidin-7-yl)-1-(methoxy-d3)-2-naphthonitrile]	< 50
[2H]C([2H])([2H])Oc1c(C#N)c(F)cc2cc(N)cc(-c3ncc4c(N5CCCC[C@H]6[C@H](F)[C@H]65)nc(OC([2H])([2H])[C@@]56CCCN5C[C@H](F)C6)nc4c3F)c12 [Example 50, 6-Amino-3-fluoro-8-(8-fluoro-4-((1S,7R,8S)-8-fluoro-2-azabicyclo[5.1.0]octan-2-yl)-2-(((2R,7aS)-2-fluorotetrahydro-1H-pyrrolizin-7a(5H)-yl)methoxy-d2)pyrido[4,3-d]pyrimidin-7-yl)-1-(methoxy-d3)-2-naphthonitrile]	< 50
[2H]C([2H])(Oc1nc(N2CCC[C@@H]3C[C@@H]32)c2cnc(-c3cc(N)cc4cc(F)c(F)c(C#C)c34)c(F)c2n1)[C@@]12CCCN1C[C@H](F)C2 [Example 51, 4-(4-((1S,6R)-2-Azabicyclo[4.1.0]heptan-2-yl)-8-fluoro-2-(((2R,7aS)-2-fluorotetrahydro-1H-pyrrolizin-7a(5H)-yl)methoxy-d2)pyrido[4,3-d]pyrimidin-7-yl)-5-ethynyl-6,7-difluoronaphthalen-2-amine]	500 to 10000
[2H]C([2H])(Oc1nc(N2CCC[C@H]3C[C@H]32)c2cnc(-c3cc(N)cc4cc(F)c(F)c(C#C)c34)c(F)c2n1)[C@@]12CCCN1C[C@H](F)C2 [Example 52, 4-(4-((1R,6S)-2-azabicyclo[4.1.0]heptan-2-yl)-8-fluoro-2-(((2R,7aS)-2-fluorotetrahydro-1H-pyrrolizin-7a(5H)-yl)methoxy-d2)pyrido[4,3-d]pyrimidin-7-yl)-5-ethynyl-6,7-difluoronaphthalen-2-amine]	50 to 500
[2H]C([2H])(Oc1nc(N2CCC[C@@H]3[C@@H](F)[C@@H]32)c2cnc(-c3cc(N)cc4cc(F)c(F)c(C#C)c34)c(F)c2n1)[C@@]12CCCN1C[C@H](F)C2 [Example 53, 5-Ethynyl-6,7-difluoro-4-(8-fluoro-4-((1R,6S,7R)-7-fluoro-2-azabicyclo[4.1.0]heptan-2-yl)-2-(((2R,7aS)-2-fluorotetrahydro-1H-pyrrolizin-7a(5H)-yl)methoxy-d2)pyrido[4,3-d]pyrimidin-7-yl)naphthalen-2-amine]	50 to 500
[2H]C([2H])(Oc1nc(N2CCC[C@H]3[C@H](F)[C@H]32)c2cnc(-c3cc(N)cc4cc(F)c(F)c(C#C)c34)c(F)c2n1)[C@@]12CCCN1C[C@H](F)C2 [Example 54, 5-Ethynyl-6,7-difluoro-4-(8-fluoro-4-((1S,6R,7S)-7-fluoro-2-azabicyclo[4.1.0]heptan-2-yl)-2-(((2R,7aS)-2-fluorotetrahydro-1H-pyrrolizin-7a(5H)-yl)methoxy-d2)pyrido[4,3-d]pyrimidin-7-yl)naphthalen-2-amine]	< 50
[2H]C([2H])(Oc1nc(N2CCCCC[C@@H]3C[C@@H]32)c2cnc(-c3cc(N)cc4cc(F)c(F)c(C#C)c34)c(F)c2n1)[C@@]12CCCN1C[C@H](F)C2 [Example 55, 4-(4-((1S,8R)-2-azabicyclo[6.1.0]nonan-2-yl)-8-fluoro-2-(((2R,7aS)-2-fluorotetrahydro-1H-pyrrolizin-7a(5H)-yl)methoxy-d2)pyrido[4,3-d]pyrimidin-7-yl)-5-ethynyl-6,7-difluoronaphthalen-2-amine]	500 to 10000
[2H]C([2H])(Oc1nc(N2CCCCC[C@H]3C[C@H]32)c2cnc(-c3cc(N)cc4cc(F)c(F)c(C#C)c34)c(F)c2n1)[C@@]12CCCN1C[C@H](F)C2 [Example 56, 4-(4-((1R,8S)-2-azabicyclo[6.1.0]nonan-2-yl)-8-fluoro-2-(((2R,7aS)-2-fluorotetrahydro-1H-pyrrolizin-7a(5H)-yl)methoxy-d2)pyrido[4,3-d]pyrimidin-7-yl)-5-ethynyl-6,7-difluoronaphthalen-2-amine]	< 50
C#Cc1c(F)ccc2cc(N)cc(-c3ncc4c(N5CCCCC6C5C6(F)F)nc(OC[C@@]56CCCN5C[C@H](F)C6)nc4c3F)c12 (stereo partly drawn) [Example 57, 4-(4-(8,8-Difluoro-2-azabicyclo[5.1.0]octan-2-yl)-8-fluoro-2-(((2R,7aS)-2-fluorotetrahydro-1H-pyrrolizin-7a(5H)-yl)methoxy)pyrido[4,3-d]pyrimidin-7-yl)-5-ethynyl-6-fluoronaphthalen-2-amine]	50 to 500
[2H]C([2H])(Oc1nc(N2CCCCC[C@@H]3[C@@H](F)[C@@H]32)c2cnc(-c3cc(N)cc4cc(F)c(F)c(C#C)c34)c(F)c2n1)[C@@]12CCCN1C[C@H](F)C2 [Example 59, 5-Ethynyl-6,7-difluoro-4-(8-fluoro-4-((1R,8S,9R)-9-fluoro-2-azabicyclo[6.1.0]nonan-2-yl)-2-(((2R,7aS)-2-fluorotetrahydro-1H-pyrrolizin-7a(5H)-yl)methoxy-d2)pyrido[4,3-d]pyrimidin-7-yl)naphthalen-2-amine]	500 to 10000
[2H]C([2H])(Oc1nc(N2CCCCC[C@H]3[C@H](F)[C@H]32)c2cnc(-c3cc(N)cc4cc(F)c(F)c(C#C)c34)c(F)c2n1)[C@@]12CCCN1C[C@H](F)C2 [Example 60, 5-Ethynyl-6,7-difluoro-4-(8-fluoro-4-((1S,8R,9S)-9-fluoro-2-azabicyclo[6.1.0]nonan-2-yl)-2-(((2R,7aS)-2-fluorotetrahydro-1H-pyrrolizin-7a(5H)-yl)methoxy-d2)pyrido[4,3-d]pyrimidin-7-yl)naphthalen-2-amine]	< 50
[2H]C([2H])(Oc1nc(N2CCOC[C@@H]3C[C@@H]32)c2cnc(-c3cc(N)cc4cc(F)c(F)c(C#C)c34)c(F)c2n1)[C@@]12CCCN1C[C@H](F)C2 [Example 61, 4-(4-((1S,7R)-5-Oxa-2-azabicyclo[5.1.0]octan-2-yl)-8-fluoro-2-(((2R,7aS)-2-fluorotetrahydro-1H-pyrrolizin-7a(5H)-yl)methoxy-d2)pyrido[4,3-d]pyrimidin-7-yl)-5-ethynyl-6,7-difluoronaphthalen-2-amine]	500 to 10000
[2H]C([2H])(Oc1nc(N2CCC[C@@H]3[C@H](F)[C@@H]32)c2cnc(-c3cc(N)cc4cc(F)c(F)c(C#C)c34)c(F)c2n1)[C@@]12CCCN1C[C@H](F)C2 [Example 63, 5-Ethynyl-6,7-difluoro-4-(8-fluoro-4-((1R,6S,7S)-7-fluoro-2-azabicyclo[4.1.0]heptan-2-yl)-2-(((2R,7aS)-2-fluorotetrahydro-1H-pyrrolizin-7a(5H)-yl)methoxy-d2)pyrido[4,3-d]pyrimidin-7-yl)naphthalen-2-amine]	500 to 10000
